From patent publication US8507547B2, “Anti-fatigue agents and oral compositions containing andrographolide as active ingredient” (Suntory Holdings Limited, priority 2007, dated 2013)

How the values were obtained:
Sprague Dawley rats = test: Forced exercise test (amount of spontaneous exercise after treadmill exercise stress); assay type: in vivo; settings: 2 mg per kilogram of body weight orally after 3 hours treadmill exercise stress; FIG. 3
Method: The third test is measurement of an amount of spontaneous exercise in a forced exercise test. This is described in detail below in Example 3. Rats were forced to exercise on a treadmill, and thereafter the test substance was administered. Then, the amount of spontaneous exercise of the animal was measured. Since this animal model is an exercise fatigue (physical fatigue) model, anti-fatigue action against physical fatigue would be confirmed if increase in the amount of spontaneous exercise is observed after the administration of the test substance. Such anti-fatigue action is considered to be involved in improving endurance and exercise performance.
Six-week-old male Sprague Dawley rats were used as a test animal. On the day before the test was started, the rats were divided into five groups each having eight rats, and all of the rats were deprived of food since the morning of the test day. […] Thereafter, the rats were moved into a spontaneous exercise measuring device having an infrared sensor (Supermex, Muromachi Kikai Co., Ltd.), and an amount of spontaneous exercise was measured during a period of 0-2 hours (exploration) and a period of 2-14 hours (dark period). […]

Balb/c mice = test: Water-immersion and sleep-disturbance test (weight-loaded forced swimming test, swimming time); assay type: in vivo
Description: The first test is measurement of a swimming time in a water-immersion and sleep-disturbance test. This is described in detail below in Example 1. Mice raised in an environment, such as a water-immersed environment, where they were not allowed to take enough sleep or to take a comfortable posture so that they could take neither physical nor mental rest were weighted and forced to swim, and a length of time that passed until noses of the mice sank under the water for a period of 10 seconds or longer was measured (weight-loaded forced swimming test) to determine their fatigue level.
That is to say, since this animal model is a physical and mental fatigue model as well as an organ fatigue model described below, anti-fatigue action against physical and/or mental fatigue would be confirmed if the swimming time becomes longer as a result of administration of the test substance. Such anti-fatigue action is considered to be involved in reduction in fatigue stress, maintenance of physical energy under fatigue conditions (enhancement of body strength), improvement in endurance, and the like.
Effect of andrographolide on fatigue from water immersion and sleep disturbance was examined using a partially modified method of Tanaka et al. (Neuroscience Let. 352, 159-162, 2003). […] Four out of the five groups were reared as water-immersed groups; the groups were kept in cages in such a manner that each of the cages was filled with tap water at 23° C. with a water depth of 7 mm, instead of a floor covering, so that the mice were immersed in water and deprived of sleep. The mice were immersed in water for two days, andrographolide (Aldrich corp., purity 98%) was forcibly administered orally to the mice with doses of 0.5, 2, 8 mg per kilogram of body weight once daily during the two days (water-immersed and andrographolide-administered group). As a control group, one of the groups was immersed in water for two days, and distilled water was forcibly given orally to the group once daily during the two days (water-immersed control group). The remaining one of the five groups was reared as a normally-reared group; this group was kept in a cage with a normal floor covering, and distilled water was forcibly given orally to the group once daily during the two-day rearing (normally-reared control group). After the two days, each of the mice was provided with a weight corresponding to 8% of its body weight, which weight was attached to its tale, and then the mice were forced to swim in a water tank having a diameter of 18 cm and filled with water having a depth of 30 cm. A length of time that passed until the mice sank under water for a period of 10 seconds or longer (swimming time) was measured (weight-loaded forced swimming test).
The swimming time of the mice of the water-immersed group was shorter than that of the mice of the normally-reared group because of fatigue from the water immersion and sleep disturbance. The effect of andrographolide on the fatigue from the water immersion and sleep disturbance was examined by determining recovery of a reduction in the swimming time of the mice of the water-immersed group after the administration of andrographolide.
In accordance with the procedure described in Example 1, effect on water-immersion and sleep-disturbance fatigue was examined in a case in which andrographolide was administered alone to mice, a case in which alpha-lipoic acid was administered alone to mice, and a case in which a combination of andrographolide and alpha-lipoic acid was administered to mice. Eight-week-old male Balb/c mice were used as a test animal. […] Four out of the five groups served as water-immersed groups, and each of the groups was kept in a cage filled with tap water at 23° C. with a water depth of 7 mm, instead of a floor covering, so that the mice were immersed in water and deprived of sleep. […]

SMILES: C=C1CC[C@@H]2[C@](C)(CO)[C@H](O)CC[C@@]2(C)[C@@H]1C/C=C1/C(=O)OC[C@H]1O [andrographolide]
- amount of spontaneous exercise (Sprague Dawley rats): increase in the amount of spontaneous exercise was observed
- reduction in the swimming time (Balb/c mice; 0.25 mg per kilogram of body weight orally once daily during two days of water immersion, FIG. 1(B)): prevented reduction in the swimming time
- reduction in the swimming time (Balb/c mice; 200 mg per kilogram of body weight orally once daily during two days of water immersion, FIG. 1(C)): prevented reduction in the swimming time
- toxicity to the mice (Balb/c mice; 200 mg per kilogram of body weight orally once daily for two days): no toxicity to the mice was observed
- reduction in the swimming time (Balb/c mice; 0.5, 2, 8 mg per kilogram of body weight orally once daily during two days of water immersion, FIG. 1(A)): prevented in a dose-dependent manner
- shortening of the swimming time (Balb/c mice; Example 5, FIG. 5, andrographolide 0.25 mg/kg (5a), alpha-lipoic acid 50 mg/kg (5b) or both (5c), orally once daily during two days of water immersion): prevented from shortening
- increase rate of the swimming time (Balb/c mice; Example 5, swimming time of normally-reared group minus water-immersed control group = 100%, andrographolide 0.25 mg/kg, alpha-lipoic acid 50 mg/kg, alone or combined): 5%
